Legend:
[1] = system: HEK293 cells; test: HEK293 cell viability (CellTiter-Glo, ATP levels); assay type: cell-based; conditions: Homo sapiens, 24 h post-treatment, screening control, 14 replicate wells
Procedure: Mammalian cell toxicity was evaluated in HEK293 cells (ATCC) using ATP levels as an indicator of metabolically active cells. Assays were performed in 1536-well plates (Greiner white/solid bottom, high base), and luminescence measurements were made on a ViewLux (Perkin Elmer) ([Martinez et al., 2021]; [Solinski et al., 2019]). Assay-ready plates in 1536-well format were prepared as above using the 384-well Echo-compatible source plates; 25 nl of a seven-point titration with 1:5 dilution starting at a high concentration of 2.5–20 mM of compound was added to respective wells with an Echo 555 acoustic dispenser. A titration of digitonin, 20 mM to 610 nM in DMSO (83.3 µM to 2.5 nM final assay concentration), was used as an intraplate cell toxicity control titration. DMSO vehicle and 83.3 μM digitonin final concentration (64 or 32 replicate wells per assay plate, respectively) were used to establish the assay signal window. Plates were stored at −80°C until use and equilibrated to ambient temperature prior to cell dispense. Then, 1500 cells were added at 6 μl assay volume/well (240-fold dilution) across plates with a Multidrop Combi dispenser (Thermo Fisher Scientific) in standard Dulbecco's modified Eagle medium. Cell viability-dependent luminescence levels were read following the addition of 4 μl CellTiter-Glo (Promega) after 24 h incubation with the test compound.

[2] = system: C. elegans; conditions: total GFP area, days 3 and 7 post chemical exposure
[3] = system: C. elegans strain PE254; test: C. elegans LSC qHTS viability assay, Anti-Infectives library primary screen (BG-fed, 384-well); assay type: in vivo, Caenorhabditis elegans
Procedure: Levamisole, ivermectin and albendazole were purchased from Sigma-Aldrich. Stock solutions of all compounds were prepared at 10 mM in DMSO, and ivermectin was diluted to a 10 µM working dilution in DMSO. […] Of these, 284 (38%) are approved for clinical use in the United States, 32 (4%) were previously marketed for use in the United States, and 62 (8%) are used clinically outside of the United States. […] DMSO stock solutions of were arrayed in Echo-qualified 384-well cyclic olefin copolymer plates (Labcyte) in qHTS inter-plate dilution with seven concentrations, 1:5 dilution, resulting in a final concentration range of 2.5–20 mM high concentration titrated to 160 nM to 1.28 µM low concentration ([Yasgar et al., 2008]). ‘Assay-ready’ plates were prepared in 384-well uClear microtiter plates (Greiner BioOne), with compounds acoustically dispensed at 250 nl per well with an Echo 555 in the above inter-plate titration array. Two plates with DMSO added across the compound field at the same volume were prepared as screening controls (‘uniformity plates’). DMSO vehicle control was added to every well of column 1, and levamisole cytotoxicity control was added at a high concentration of 10 mM in wells 1–8 and titrated 1:3, starting at a high concentration of 10 mM to 4.57 µM in wells 9–16 of column 2 of every plate. Additionally, ivermectin, levamisol and albendazole were plated as internal controls on one assay plate in 16-point, 1:2 titration down six replicate columns per compound, starting at a high concentration of 10 µM (ivermectin) or 10 mM (levamisole and albendazole). Assay-ready plates were sealed and frozen at −80°C until use.
C. elegans strain PE254 were collected from 12 NGM plates as above, transferred to 250 ml S medium supplemented with OP50 E. coli pellet collected from 2 l overnight culture, and grown for 5 days at 21°C with vigorous shaking in an Incu-Shaker Mini Shaking Incubator (Benchmark Scientific, Inc.). Eggs were axenized as above and hatched overnight in M9 buffer at 21°C and shaken at 65 rpm. Assay ready plates were thawed and allowed to equilibrate to ambient temperature. BGs in S medium (30 µl/well) at an OD600=0.85 were manually added across plates with a Capp pipette. Synchronized L1 worms from above were collected, diluted and plated at ten worms/30 µl/well with a Capp pipette into assay-ready microtiter plates pre-plated with BGs and compounds (240-fold dilution). […] No ethical approval or guidance is needed for working with nematodes.
Data from the Anti-Infectives screen were normalized by plate to corresponding intra-plate controls as previously described ([Inglese et al., 2006]). Assay statistics were calculated using the same respective controls. Total object ‘GFP’ area (µm^2) and number of worms were normalized to the average signal of DMSO-treated wells as zero percent neutral control, and the average signal of 41.7 µM levamisole-treated wells as −100% activity. In-house software was used to fit the resulting inter-plate titration data to the standard Hill equation, and concentration–response curves were classified by activity as previously described ([Southall et al., 2009]). Curve fits assignments of −1.1, −1.2, −2.1, −2.2 and −3 were considered active and visually confirmed.

[4] = system: C. elegans; parameters: method as in Sant'anna et al., 2013; conditions: all life stages, post 7-day treatment; ref Sant'anna et al., 2013; read-out: EC50 (toxic); cited from earlier work
[5] = system: C. elegans strain PE254; test: 384-well LSC C. elegans viability assay, life-stage sorted worms on BGs or OP50 live bacteria (assay development); assay type: in vivo, Caenorhabditis elegans
[6] = system: C. elegans strain PE254; test: Follow-up 11-point re-test, C. elegans LSC viability; assay type: in vivo, Caenorhabditis elegans; conditions: day 7, screening control in re-test, 4 replicate wells
Procedure: C. elegans strain PE254 were collected from six NGM plates and washed. […] Assay-ready plates were prepared as above with an 11-point, 1:3 titration of 96 compounds identified as active from the qHTS screen based on curve classification and maximum response. […] Data were normalized as above, and concentration–response curves were fit in Prism with nonlinear regression log(agonist) versus response–variable slope (four parameters) fit.

C[C@@H]1CC[C@@]2(OC1)O[C@H]1[C@@H](O)[C@H]3[C@@H]4CC[C@H]5C[C@@H](O[C@@H]6O[C@H](CO)[C@H](O[C@@H]7O[C@H](CO)[C@@H](O)[C@H](O[C@@H]8OC[C@@H](O)[C@H](O)[C@H]8O)[C@H]7O[C@@H]7O[C@H](CO)[C@H](O)[C@H](O[C@@H]8O[C@H](CO)[C@@H](O)[C@H](O)[C@H]8O)[C@H]7O)[C@H](O)[C@H]6O)[C@H](O)C[C@]5(C)[C@H]4CC[C@]3(C)[C@H]1[C@@H]2C [Digitonin, digitonin]
EC50 [1]: 31.3 µM

Clc1ccc(C(c2ccc(Cl)cc2)C(Cl)(Cl)Cl)cc1 [DDT, dichlorodiphenyltrichloroethane]
activity in Tox21 sub-library C. elegans qHTS (in words) [2]: potent activity

CCCSc1ccc2nc(NC(=O)OC)[nH]c2c1 [Albendazole]
EC50 ([3]; Caenorhabditis elegans, 72 h, read-out: Treatment day, EC50 (GFP area)): 0.2 ± 0.3 µM
EC50 ([3]; Caenorhabditis elegans, 96 h, read-out: Treatment day, EC50 (GFP area)): 0.8 ± 0.7 µM
EC50 ([3]; Caenorhabditis elegans, 120 h, read-out: Treatment day, EC50 (GFP area)): 0.9 ± 0.4 µM
EC50 ([3]; Caenorhabditis elegans, 144 h, read-out: Treatment day, EC50 (GFP area)): 0.8 ± 0.4 µM
EC50 ([3]; Caenorhabditis elegans, 168 h, read-out: Treatment day, EC50 (GFP area)): 1.1 ± 0.6 µM
EC50 [4]: > 10 µM
toxicity (in words) ([5]; worms grown on BGs, as early as day 1 for L4 and adult worms, by day 2 for most life stages): significant toxicity

c1ccc([C@H]2CN3CCSC3=N2)cc1 [Levamisole]
EC50 ([3]; day 3, intra-plate screening control, averaged from 21 replicates, normalized to 41.7 μM levamisole, read-out: EC50 (GFP area)): 9.37 ± 0.93 µM
EC50 ([3]; day 3, intra-plate screening control, averaged from 21 replicates, read-out: EC50 (number of worms)): 5.96 ± 2.4 µM
EC50 ([3]; day 7, intra-plate screening control, averaged from 21 replicates, read-out: EC50 (GFP area)): 7.99 ± 1.44 µM
EC50 ([3]; day 7, intra-plate screening control, averaged from 21 replicates, read-out: EC50 (number of worms)): 5.74 ± 0.91 µM
activity on C. elegans viability in primary qHTS (in words) ([3]; seven-point titration, GFP area): active
EC50 ([3]; treatment day 2, internal control, 16-point titration, six replicate wells, read-out: Treatment day, EC50 (GFP area)): 12.7 ± 4.7 µM
EC50 ([3]; treatment day 3, internal control, 16-point titration, six replicate wells, read-out: Treatment day, EC50 (GFP area)): 14 ± 5.5 µM
EC50 ([3]; treatment day 4, internal control, 16-point titration, six replicate wells, read-out: Treatment day, EC50 (GFP area)): 5.6 ± 1.5 µM
EC50 ([3]; treatment day 5, internal control, 16-point titration, six replicate wells, read-out: Treatment day, EC50 (GFP area)): 5.3 ± 0.6 µM
EC50 ([3]; treatment day 6, internal control, 16-point titration, six replicate wells, read-out: Treatment day, EC50 (GFP area)): 4.9 ± 0.4 µM
EC50 ([3]; treatment day 7, internal control, 16-point titration, six replicate wells, read-out: Treatment day, EC50 (GFP area)): 5 ± 0.8 µM
EC50 ([6]; read-out: EC50 using #worms): 2.45 µM
EC50 ([6]; read-out: EC50 using GFP area): 2.23 µM
EC50 values (in words) ([5]; all life stages, both media (BGs and live bacteria), 7-day time course): low-micromolar range

CCOCn1c(-c2ccc(Cl)cc2)c(C#N)c(Br)c1C(F)(F)F [Chlorfenapyr, chlorfenapyr]
activity in Tox21 sub-library C. elegans qHTS (in words) [2]: identified

From article PMC10067442, “In vivo quantitative high-throughput screening for drug discovery and comparative toxicology” (Disease Models & Mechanisms, 2023)
